For 9 compounds, AC50 results are on record in ChEMBL document CHEMBL5291721, “A preclinical secondary pharmacology resource illuminates target-adverse drug reaction associations of marketed drugs” (Nat Commun, 2023).

Targets include D(3) dopamine receptor (Homo sapiens, UniProt P35462); Mu-type opioid receptor (Homo sapiens, UniProt P35372); D(1A) dopamine receptor (Homo sapiens, UniProt P21728); Histamine H3 receptor (Homo sapiens, UniProt Q9Y5N1).
In test [1] the target is 3',5'-cyclic-AMP phosphodiesterase 4A (Homo sapiens, UniProt P27815). Type of test: functional.
The target of the next test is Prothrombin (Homo sapiens, UniProt P00734). Type of test: functional.
Test [2] has as its target T1, Alpha-2A adrenergic receptor (Homo sapiens, UniProt P08913).
T1 sequence (P08913 whole entry): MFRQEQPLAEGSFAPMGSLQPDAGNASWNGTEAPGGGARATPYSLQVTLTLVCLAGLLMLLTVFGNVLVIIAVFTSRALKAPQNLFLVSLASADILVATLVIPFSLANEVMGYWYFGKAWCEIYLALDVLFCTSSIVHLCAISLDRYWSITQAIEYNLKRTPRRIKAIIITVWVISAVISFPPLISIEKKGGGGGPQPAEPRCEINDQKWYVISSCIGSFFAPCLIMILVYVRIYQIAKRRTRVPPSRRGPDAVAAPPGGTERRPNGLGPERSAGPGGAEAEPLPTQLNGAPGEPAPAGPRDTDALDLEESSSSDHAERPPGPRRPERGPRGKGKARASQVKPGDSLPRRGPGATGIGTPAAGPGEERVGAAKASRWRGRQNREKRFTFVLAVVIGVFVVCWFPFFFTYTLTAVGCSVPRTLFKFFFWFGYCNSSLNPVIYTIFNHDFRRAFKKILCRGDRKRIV

In test [3] the target is T2, 5-hydroxytryptamine receptor 1A (Homo sapiens, UniProt P08908).
T2 sequence (P08908 whole entry): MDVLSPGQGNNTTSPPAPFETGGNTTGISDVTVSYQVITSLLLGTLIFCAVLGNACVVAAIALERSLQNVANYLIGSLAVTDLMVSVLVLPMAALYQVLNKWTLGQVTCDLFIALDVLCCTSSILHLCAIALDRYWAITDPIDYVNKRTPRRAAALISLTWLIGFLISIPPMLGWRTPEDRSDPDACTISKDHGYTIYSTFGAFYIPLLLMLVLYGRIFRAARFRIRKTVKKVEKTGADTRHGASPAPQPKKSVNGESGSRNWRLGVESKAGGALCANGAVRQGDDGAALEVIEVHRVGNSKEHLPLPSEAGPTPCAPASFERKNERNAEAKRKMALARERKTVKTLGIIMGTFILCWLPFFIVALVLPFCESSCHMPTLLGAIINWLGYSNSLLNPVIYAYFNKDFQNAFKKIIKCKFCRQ

The target in test [4] is Prostaglandin G/H synthase 1 (Homo sapiens, UniProt P23219). It is filed as functional.
For test [5], the target named is Voltage-gated inwardly rectifying potassium channel KCNH2 (Homo sapiens, UniProt Q12809). It is filed as functional. Particulars: read-out: AC50.
Test [6] has as its target Sodium-dependent dopamine transporter (Homo sapiens, UniProt Q01959).
Test [7] concerns the target Sodium-dependent serotonin transporter (Homo sapiens, UniProt P31645).
The target in the next test is T3, Thromboxane A2 receptor (Homo sapiens, UniProt P21731).
T3 sequence (P21731 whole entry): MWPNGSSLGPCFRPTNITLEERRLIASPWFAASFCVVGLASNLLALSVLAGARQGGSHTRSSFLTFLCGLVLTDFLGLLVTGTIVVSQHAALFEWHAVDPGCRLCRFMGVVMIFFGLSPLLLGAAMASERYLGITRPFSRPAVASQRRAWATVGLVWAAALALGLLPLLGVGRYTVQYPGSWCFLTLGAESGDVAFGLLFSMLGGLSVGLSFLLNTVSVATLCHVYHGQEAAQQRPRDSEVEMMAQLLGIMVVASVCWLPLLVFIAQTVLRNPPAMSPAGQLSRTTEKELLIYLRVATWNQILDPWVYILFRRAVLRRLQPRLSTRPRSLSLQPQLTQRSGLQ
It is filed as functional, cell-based.

Another test concerns the target T4, Adenosine receptor A3 (Homo sapiens, UniProt P0DMS8).
T4 sequence (P0DMS8 whole entry): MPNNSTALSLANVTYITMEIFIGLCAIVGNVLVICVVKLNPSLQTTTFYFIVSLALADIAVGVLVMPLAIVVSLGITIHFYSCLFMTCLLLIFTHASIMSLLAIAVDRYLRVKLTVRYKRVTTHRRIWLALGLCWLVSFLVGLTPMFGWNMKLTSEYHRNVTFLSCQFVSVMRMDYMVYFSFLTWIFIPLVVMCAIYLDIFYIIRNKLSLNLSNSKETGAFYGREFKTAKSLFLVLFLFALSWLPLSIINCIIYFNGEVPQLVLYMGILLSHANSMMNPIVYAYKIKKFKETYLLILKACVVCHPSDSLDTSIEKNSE
Further: assay procedure not described here.

Chain of Sodium-dependent dopamine transporter (Q01959 whole entry): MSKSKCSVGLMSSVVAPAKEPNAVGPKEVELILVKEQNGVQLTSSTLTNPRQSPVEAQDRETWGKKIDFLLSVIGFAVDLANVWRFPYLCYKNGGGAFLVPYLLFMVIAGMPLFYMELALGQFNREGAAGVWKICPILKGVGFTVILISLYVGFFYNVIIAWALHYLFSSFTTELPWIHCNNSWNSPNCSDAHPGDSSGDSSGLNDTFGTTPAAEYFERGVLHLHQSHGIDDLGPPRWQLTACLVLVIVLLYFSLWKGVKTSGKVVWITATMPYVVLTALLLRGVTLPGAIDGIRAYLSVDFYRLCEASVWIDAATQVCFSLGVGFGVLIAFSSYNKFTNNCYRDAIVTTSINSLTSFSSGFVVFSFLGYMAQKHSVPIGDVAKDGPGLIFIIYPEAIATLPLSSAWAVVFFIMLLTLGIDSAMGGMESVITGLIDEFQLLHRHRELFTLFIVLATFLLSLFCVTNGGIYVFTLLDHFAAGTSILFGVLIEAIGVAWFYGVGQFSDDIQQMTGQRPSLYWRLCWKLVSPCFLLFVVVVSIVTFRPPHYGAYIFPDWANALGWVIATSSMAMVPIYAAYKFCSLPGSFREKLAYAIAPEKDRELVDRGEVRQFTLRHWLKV
Chain of Voltage-gated inwardly rectifying potassium channel KCNH2 (Q12809 whole entry): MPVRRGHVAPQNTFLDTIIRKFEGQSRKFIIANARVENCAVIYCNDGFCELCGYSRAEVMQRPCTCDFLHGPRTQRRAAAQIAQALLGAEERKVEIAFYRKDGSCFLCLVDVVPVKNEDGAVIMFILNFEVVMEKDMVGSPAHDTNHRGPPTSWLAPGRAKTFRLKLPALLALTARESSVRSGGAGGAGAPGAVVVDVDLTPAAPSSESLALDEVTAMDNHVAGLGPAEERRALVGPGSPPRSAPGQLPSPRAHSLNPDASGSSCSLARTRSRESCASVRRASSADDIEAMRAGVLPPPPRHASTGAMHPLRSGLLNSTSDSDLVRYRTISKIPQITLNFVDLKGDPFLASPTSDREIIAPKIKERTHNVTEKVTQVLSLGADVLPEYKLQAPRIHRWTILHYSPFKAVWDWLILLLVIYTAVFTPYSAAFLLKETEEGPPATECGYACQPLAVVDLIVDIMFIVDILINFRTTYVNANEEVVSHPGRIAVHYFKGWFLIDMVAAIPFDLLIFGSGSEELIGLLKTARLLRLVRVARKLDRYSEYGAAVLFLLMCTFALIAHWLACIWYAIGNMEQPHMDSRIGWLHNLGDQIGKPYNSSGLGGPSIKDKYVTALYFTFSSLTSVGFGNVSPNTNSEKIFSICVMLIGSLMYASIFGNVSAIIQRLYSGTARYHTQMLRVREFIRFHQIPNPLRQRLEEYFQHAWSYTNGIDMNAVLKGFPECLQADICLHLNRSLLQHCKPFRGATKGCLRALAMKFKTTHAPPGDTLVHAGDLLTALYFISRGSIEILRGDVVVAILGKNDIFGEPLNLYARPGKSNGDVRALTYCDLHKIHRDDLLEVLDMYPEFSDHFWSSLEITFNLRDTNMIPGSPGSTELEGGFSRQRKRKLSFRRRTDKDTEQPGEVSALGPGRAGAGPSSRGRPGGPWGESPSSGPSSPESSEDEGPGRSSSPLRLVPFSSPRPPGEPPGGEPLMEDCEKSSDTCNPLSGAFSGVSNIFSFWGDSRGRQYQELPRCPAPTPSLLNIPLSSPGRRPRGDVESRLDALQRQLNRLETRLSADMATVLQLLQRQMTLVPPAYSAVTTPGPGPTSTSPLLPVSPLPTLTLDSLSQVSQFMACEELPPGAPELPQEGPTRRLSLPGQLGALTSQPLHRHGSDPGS
Chain of Sodium-dependent serotonin transporter (P31645 whole entry): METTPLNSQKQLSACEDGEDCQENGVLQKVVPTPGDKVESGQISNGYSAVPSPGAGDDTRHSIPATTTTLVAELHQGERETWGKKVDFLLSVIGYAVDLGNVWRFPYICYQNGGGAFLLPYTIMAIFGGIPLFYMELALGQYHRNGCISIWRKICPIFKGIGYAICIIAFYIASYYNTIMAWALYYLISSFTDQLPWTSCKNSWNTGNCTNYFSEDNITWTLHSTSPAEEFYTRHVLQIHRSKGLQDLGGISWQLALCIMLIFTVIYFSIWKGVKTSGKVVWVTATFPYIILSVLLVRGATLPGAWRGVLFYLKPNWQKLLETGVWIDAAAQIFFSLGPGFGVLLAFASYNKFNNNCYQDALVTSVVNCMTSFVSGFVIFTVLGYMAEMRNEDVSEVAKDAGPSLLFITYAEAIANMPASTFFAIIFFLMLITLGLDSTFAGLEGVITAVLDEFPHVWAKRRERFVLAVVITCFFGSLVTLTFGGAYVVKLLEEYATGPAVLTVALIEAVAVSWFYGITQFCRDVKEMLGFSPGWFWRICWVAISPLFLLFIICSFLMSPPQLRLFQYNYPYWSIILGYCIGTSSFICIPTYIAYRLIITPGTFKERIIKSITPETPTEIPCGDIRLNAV
Chain of Histamine H3 receptor (Q9Y5N1 whole entry): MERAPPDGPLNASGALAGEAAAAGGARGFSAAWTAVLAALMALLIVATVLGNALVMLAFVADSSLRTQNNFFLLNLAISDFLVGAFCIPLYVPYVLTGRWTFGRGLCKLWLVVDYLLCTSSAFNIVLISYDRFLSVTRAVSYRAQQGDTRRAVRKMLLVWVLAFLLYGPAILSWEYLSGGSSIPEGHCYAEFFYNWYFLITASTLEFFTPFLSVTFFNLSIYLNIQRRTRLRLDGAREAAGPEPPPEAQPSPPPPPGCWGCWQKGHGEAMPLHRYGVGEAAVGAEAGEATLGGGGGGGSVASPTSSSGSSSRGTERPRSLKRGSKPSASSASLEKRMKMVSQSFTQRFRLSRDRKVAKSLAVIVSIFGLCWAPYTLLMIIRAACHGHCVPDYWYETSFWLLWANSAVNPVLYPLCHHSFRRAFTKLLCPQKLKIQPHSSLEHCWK
Chain of Prostaglandin G/H synthase 1 (P23219 whole entry): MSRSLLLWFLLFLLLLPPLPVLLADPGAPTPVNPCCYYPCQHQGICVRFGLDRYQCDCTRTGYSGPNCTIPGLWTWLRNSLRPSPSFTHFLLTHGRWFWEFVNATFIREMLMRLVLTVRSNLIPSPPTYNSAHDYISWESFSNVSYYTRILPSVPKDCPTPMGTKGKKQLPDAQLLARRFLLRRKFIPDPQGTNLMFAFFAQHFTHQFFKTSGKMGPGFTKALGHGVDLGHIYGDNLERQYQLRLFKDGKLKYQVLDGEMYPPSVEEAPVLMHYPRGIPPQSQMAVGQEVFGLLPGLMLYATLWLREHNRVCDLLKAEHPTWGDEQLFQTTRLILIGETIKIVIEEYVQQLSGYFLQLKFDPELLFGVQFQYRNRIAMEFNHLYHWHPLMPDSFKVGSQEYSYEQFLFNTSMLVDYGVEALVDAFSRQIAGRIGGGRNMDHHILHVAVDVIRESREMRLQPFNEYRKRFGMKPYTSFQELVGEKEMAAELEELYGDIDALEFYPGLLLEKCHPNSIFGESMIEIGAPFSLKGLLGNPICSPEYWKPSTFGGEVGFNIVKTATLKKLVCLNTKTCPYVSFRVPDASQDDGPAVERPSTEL
Chain of D(3) dopamine receptor (P35462 whole entry): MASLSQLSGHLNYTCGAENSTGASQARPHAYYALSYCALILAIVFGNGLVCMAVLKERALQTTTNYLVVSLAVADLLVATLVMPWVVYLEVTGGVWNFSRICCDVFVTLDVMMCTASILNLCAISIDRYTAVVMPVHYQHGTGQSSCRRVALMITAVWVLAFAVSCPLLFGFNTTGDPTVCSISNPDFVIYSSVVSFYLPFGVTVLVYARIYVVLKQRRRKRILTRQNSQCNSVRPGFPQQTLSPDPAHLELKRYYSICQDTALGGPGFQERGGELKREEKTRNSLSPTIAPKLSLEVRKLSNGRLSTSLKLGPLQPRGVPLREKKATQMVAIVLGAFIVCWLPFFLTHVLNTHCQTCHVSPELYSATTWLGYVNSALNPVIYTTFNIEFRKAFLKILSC
Chain of 3',5'-cyclic-AMP phosphodiesterase 4A (P27815 whole entry): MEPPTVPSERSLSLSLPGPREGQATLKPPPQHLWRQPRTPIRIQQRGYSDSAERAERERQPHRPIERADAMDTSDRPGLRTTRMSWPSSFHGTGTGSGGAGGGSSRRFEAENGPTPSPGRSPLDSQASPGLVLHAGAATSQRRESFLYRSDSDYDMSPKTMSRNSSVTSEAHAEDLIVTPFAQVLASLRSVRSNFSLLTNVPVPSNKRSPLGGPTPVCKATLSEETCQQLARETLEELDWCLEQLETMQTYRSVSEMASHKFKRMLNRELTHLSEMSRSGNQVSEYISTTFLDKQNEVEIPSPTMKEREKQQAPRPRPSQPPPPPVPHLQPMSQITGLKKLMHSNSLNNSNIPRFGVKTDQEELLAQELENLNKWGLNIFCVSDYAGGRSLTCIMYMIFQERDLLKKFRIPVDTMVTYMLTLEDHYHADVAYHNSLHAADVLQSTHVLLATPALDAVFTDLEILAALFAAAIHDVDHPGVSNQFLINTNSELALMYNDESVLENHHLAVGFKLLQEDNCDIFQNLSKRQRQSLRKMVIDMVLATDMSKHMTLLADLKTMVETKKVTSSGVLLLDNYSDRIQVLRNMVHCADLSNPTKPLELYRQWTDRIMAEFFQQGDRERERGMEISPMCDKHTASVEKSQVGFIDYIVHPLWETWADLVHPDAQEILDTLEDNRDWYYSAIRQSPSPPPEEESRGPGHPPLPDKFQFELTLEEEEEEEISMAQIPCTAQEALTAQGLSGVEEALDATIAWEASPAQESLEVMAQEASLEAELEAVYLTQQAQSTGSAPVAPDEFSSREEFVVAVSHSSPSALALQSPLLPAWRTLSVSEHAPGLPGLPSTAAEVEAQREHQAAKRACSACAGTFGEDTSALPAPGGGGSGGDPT

Regarding `CC(C(=O)O)c1ccc2c(c1)Cc1cccnc1O2` (stereo not given) [PRANOPROFEN], the half-maximal activity concentration (AC50) on D(3) dopamine receptor is over 30 µM; in test [1], over 30 µM; on Prothrombin, over 30 µM; in test [2], over 30 µM; in test [3] it was over 30 µM; in test [4], 0.702 µM. Further, the AC50 in test [5] is over 30 µM; at Mu-type opioid receptor, over 30 µM; at D(1A) dopamine receptor, over 30 µM; in [6], over 30 µM; in test [7], over 10 µM; at Thromboxane A2 receptor, over 30 µM. In addition, the AC50 at Histamine H3 receptor and on Adenosine receptor A3 was over 30 µM throughout.

As for `CCCCN(CCCC)CCCOC(=O)c1ccc(N)cc1` [BUTACAINE], the AC50 on D(3) dopamine receptor is 5.52 µM; in [1] it was over 30 µM; at Prothrombin it was over 30 µM; in test [2] it was over 30 µM; in test [3] it was 2.97 µM; in test [4], over 30 µM. For the same compound, the concentration at half-maximal activity (AC50) is 5.4 µM in [5]; over 30 µM on Mu-type opioid receptor; over 30 µM on D(1A) dopamine receptor; 2 µM in test [6]; over 30 µM in [7]; over 30 µM at Thromboxane A2 receptor. In addition, the half-maximal activity concentration (AC50) on Histamine H3 receptor and on Adenosine receptor A3 was over 30 µM in each case.

As to `CS(=O)(=O)Nc1cc2occ(NC=O)c(=O)c2cc1Oc1ccccc1` [IGURATIMOD], the concentration at half-maximal activity (AC50) on D(3) dopamine receptor is over 30 µM; in test [1] it was 1.75 µM; on Prothrombin, over 30 µM; in test [2], over 30 µM; in test [3] it was over 30 µM; in test [4] it was 4.33 µM. Moreover, the AC50 (in test [5]; at Mu-type opioid receptor; on D(1A) dopamine receptor; in [6]; in [7]; at Thromboxane A2 receptor) was over 30 µM in each case. The AC50 at Histamine H3 receptor was over 30 µM; at Adenosine receptor A3, 1.44 µM.

On to `C[C@@H]1O[C@@H](OC[C@H]2O[C@@H](Oc3c(-c4ccc(OCCO)c(OCCO)c4)oc4cc(OCCO)cc(O)c4c3=O)[C@H](O)[C@@H](O)[C@@H]2O)[C@H](O)[C@H](O)[C@H]1O` [TROXERUTIN], for which the AC50 was over 30 µM at D(3) dopamine receptor; over 30 µM in test [1]; over 30 µM at Prothrombin; over 30 µM in test [2]; over 30 µM in test [3]; 22.4 µM in test [4]. Also, the AC50 (in test [5]; on Mu-type opioid receptor; on D(1A) dopamine receptor; in [6]; in [7]; at Thromboxane A2 receptor) was over 30 µM in each case. Moreover, the results for the AC50 on Histamine H3 receptor and at Adenosine receptor A3 were over 30 µM and 7.52 µM, respectively.

`CCCC1C(=O)N2C(N(C)C)=Nc3ccc(C)cc3N2C1=O` (stereo not given) [APAZONE]: the concentration at half-maximal activity (AC50) was over 30 µM at D(3) dopamine receptor; over 30 µM in test [1]; over 30 µM at Prothrombin; over 30 µM in [2]; over 30 µM in [3]; 6.16 µM in test [4]. In addition, the AC50 (in test [5]; at Mu-type opioid receptor; on D(1A) dopamine receptor; in test [6]; in test [7]; at Thromboxane A2 receptor) was over 30 µM throughout. Besides, the AC50 at Histamine H3 receptor was over 30 µM; on Adenosine receptor A3, 3.84 µM.

As to `C1N2CN3CN1CN(C2)C3` [METHENAMINE], the concentration at half-maximal activity (AC50) (at D(3) dopamine receptor; in [1]; on Prothrombin; in test [2]; in test [3]; in test [4]) was over 30 µM throughout. Moreover, the AC50 (in [5]; on Mu-type opioid receptor; at D(1A) dopamine receptor; in test [6]; in test [7]; at Thromboxane A2 receptor) was over 30 µM each time. Besides, the concentration at half-maximal activity (AC50) on Histamine H3 receptor and at Adenosine receptor A3 was over 30 µM each time.

On to `CC[C@@H]1/C=C(\C)C[C@H](C)C[C@H](OC)[C@H]2O[C@@](O)(C(=O)C(=O)N3CCCC[C@H]3C(=O)O[C@H](/C(C)=C/[C@@H]3CC[C@H](Cl)[C@H](OC)C3)[C@H](C)[C@@H](O)CC1=O)[C@H](C)C[C@@H]2OC` [PIMECROLIMUS], for which the half-maximal activity concentration (AC50) (on D(3) dopamine receptor; in test [1]; at Prothrombin; in [2]; in test [3]; in test [4]) was over 30 µM each time. Besides, the concentration at half-maximal activity (AC50) (in test [5]; at Mu-type opioid receptor; on D(1A) dopamine receptor; in [6]; in [7]; on Thromboxane A2 receptor) was over 30 µM in each case. For the same compound, the figures for the half-maximal activity concentration (AC50) on Histamine H3 receptor and at Adenosine receptor A3 were over 30 µM and 5.19 µM, respectively.

As to `O=C(O)c1cccc(-c2noc(-c3ccccc3F)n2)c1`, the concentration at half-maximal activity (AC50) (at D(3) dopamine receptor; in [1]; on Prothrombin; in test [2]; in test [3]; in test [4]) was over 30 µM throughout. The AC50 (in test [5]; at Mu-type opioid receptor; on D(1A) dopamine receptor; in [6]; in test [7]; on Thromboxane A2 receptor) was over 30 µM throughout. Further, the half-maximal activity concentration (AC50) at Histamine H3 receptor and on Adenosine receptor A3 was over 30 µM in each case.

`CCC1(c2cccc(O)c2)CCCCN(C)C1` (stereo not given) [MEPTAZINOL]: the concentration at half-maximal activity (AC50) was over 30 µM on D(3) dopamine receptor; over 30 µM in test [1]; over 30 µM on Prothrombin; over 30 µM in test [2]; over 30 µM in [3]; over 3 µM in [4]. In addition, the AC50 was over 30 µM in test [5]; over 30 µM on D(1A) dopamine receptor; over 30 µM in test [6]; 13.5 µM in test [7]; over 30 µM on Thromboxane A2 receptor; over 30 µM on Histamine H3 receptor. Also, on Adenosine receptor A3, the AC50 was over 30 µM.

The AC50 is the midpoint of the concentration-response curve, whichever way the signal moves.
